Source: article PMC8058163 (Clinical pharmacology and therapeutics, 2020)
“And” between values parts separate entries of the source, which are not always exact repeats. Equal entries are not always repeated. Where two headings read alike, the source gives them in different places.

How the values were obtained:
all transporters tested = test: Transporter inhibition assays, summary over the panel; details: against all transporters tested
OAT1 = biological target: T1, OAT1 (Homo sapiens, UniProt Q4U2R8); test: Transporter inhibition assay, OAT1; format: cell-based; details: cell line (HEK293 or MDCKII) stably expressing OAT1
T1 sequence (Q4U2R8 1-563): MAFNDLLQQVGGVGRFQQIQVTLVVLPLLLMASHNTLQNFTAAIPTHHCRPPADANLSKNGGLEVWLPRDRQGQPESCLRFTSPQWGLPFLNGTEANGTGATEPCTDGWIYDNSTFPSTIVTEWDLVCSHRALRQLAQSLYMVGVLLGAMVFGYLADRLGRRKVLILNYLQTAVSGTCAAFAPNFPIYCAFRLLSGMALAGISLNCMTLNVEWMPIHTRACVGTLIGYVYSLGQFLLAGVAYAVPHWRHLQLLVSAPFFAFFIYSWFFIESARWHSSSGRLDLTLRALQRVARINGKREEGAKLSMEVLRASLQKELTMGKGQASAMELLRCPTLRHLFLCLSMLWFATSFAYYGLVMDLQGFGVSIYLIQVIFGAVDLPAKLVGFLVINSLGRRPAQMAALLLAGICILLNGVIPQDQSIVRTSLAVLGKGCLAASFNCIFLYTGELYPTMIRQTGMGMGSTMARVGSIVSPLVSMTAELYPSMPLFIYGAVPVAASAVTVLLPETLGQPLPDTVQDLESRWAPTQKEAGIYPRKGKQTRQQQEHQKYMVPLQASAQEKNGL

MATE2-K = MATE2-K (Homo sapiens, UniProt Q86VL8); test: Transporter inhibition assay, MATE2-K; format: cell-based; details: isolated alkaloids, mean [95% CI], three technical replicates
Chain of MATE2-K (Q86VL8 1-566 isoform Q86VL8-3): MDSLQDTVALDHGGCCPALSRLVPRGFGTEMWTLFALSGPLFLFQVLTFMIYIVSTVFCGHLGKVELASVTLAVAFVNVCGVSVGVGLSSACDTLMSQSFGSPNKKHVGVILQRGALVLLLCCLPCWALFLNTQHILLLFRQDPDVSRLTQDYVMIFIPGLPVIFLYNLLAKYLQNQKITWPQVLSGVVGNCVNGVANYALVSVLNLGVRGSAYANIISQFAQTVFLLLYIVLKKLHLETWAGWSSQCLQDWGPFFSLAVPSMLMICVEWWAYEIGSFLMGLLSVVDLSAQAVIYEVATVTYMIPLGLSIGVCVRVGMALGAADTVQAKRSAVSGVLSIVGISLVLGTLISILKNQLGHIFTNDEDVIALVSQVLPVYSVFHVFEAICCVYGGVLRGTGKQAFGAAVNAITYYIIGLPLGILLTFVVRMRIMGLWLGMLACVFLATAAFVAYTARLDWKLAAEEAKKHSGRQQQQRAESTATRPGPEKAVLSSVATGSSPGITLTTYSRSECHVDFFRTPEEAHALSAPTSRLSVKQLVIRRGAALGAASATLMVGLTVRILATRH

OCT1 = biological target: T2, OCT1 (Homo sapiens, UniProt O15245); test: Transporter inhibition assay, OCT1
T2 sequence (O15245 1-554): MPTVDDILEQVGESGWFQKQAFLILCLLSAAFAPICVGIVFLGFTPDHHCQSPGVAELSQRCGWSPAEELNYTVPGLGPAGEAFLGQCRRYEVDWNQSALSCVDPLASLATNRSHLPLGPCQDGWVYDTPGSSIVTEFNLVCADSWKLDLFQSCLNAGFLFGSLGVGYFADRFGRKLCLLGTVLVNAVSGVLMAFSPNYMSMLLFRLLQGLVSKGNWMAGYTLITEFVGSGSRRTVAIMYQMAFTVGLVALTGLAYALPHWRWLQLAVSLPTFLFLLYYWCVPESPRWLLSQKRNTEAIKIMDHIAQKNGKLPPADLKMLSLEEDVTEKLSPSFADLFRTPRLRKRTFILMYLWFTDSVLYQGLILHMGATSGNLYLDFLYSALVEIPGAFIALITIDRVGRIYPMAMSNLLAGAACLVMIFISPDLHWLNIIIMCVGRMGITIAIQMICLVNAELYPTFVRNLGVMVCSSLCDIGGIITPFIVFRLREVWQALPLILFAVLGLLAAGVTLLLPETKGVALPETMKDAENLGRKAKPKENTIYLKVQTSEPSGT

[1] = Estimated berberine concentrations and parameters for the basic models; details: 29.8 mg berberine in a 1-gram capsule / 250 mL

In the case of CN1CCc2cc3c(cc2C1O)OCO3 (stereo not drawn) [Hydrastinine, hydrastinine chloride monohydrate], the IC50 (all transporters tested) is reported as ≥ 80 µM and the inhibition at 100 μM (OAT1) is reported as < 20%.
In the case of COc1ccc2cc3[n+](cc2c1OC)CCc1cc2c(cc1-3)OCO2 [Berberine, berberine chloride], the IC50 (MATE2-K) is reported as < 1 µM and 0.77 µM, the IC50 (OCT1) is reported as 19 µM and the “estimated concentration in the gut (Igut)” value [1] is reported as ~ 350 μM.
Molecule COc1ccc2c(c1OC)C(=O)O[C@@H]2[C@H]1c2cc3c(cc2CCN1C)OCO3 [(−)-β-Hydrastine, (1R,9S)-(−)-β-Hydrastine] has an IC50 (OCT1; OCT1, isolated alkaloids, mean [95% CI], three technical replicates) of 6.6 µM.
